The values that follow come from doi:10.1101/2025.03.31.646301v1, “Discovery of Tankyrase scaffolding inhibitor specifically targeting the ARC4 peptide binding domain” (biorxiv, 2025).

For the first assay, the target named is T1, TNKS2 ARC4 (Homo sapiens, UniProt Q9H2K2).
T1 construct: ankyrin repeat cluster 4 domain; FRET: 6xHis-mCerulean (CFP) fusion; DSF, NMR, crystal: MBP and His tag cleaved by TEV, residues 487-649 printed for crystal; E. coli BL21(DE3)
T1 sequence (Q9H2K2 487-649): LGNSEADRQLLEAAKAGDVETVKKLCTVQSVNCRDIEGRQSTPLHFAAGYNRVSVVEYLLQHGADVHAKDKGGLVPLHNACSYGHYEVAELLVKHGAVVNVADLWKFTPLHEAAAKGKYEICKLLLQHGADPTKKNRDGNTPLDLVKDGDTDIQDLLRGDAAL
The assay can be described thus: biochemical. Also on record: FRET competition: inhibition of CFP-ARC domain binding to YFP-REAGDGEE peptide.
Conditions: not given
How it is done: The FRET assay for discovery of chemical probes targeting ARC and SAM domains of tankyrases was developed in a previous study.[52] The high-throughput screening of the EU-OPENSCREEN Pilot and Commercials Diversity libraries was performed at the Norwegian Centre for Molecular Biosciences and Medicine (NCMBM, formerly NCMM). For the primary screen, assay-ready plates containing library compound sufficient to reach a screening concentration of 30 µM were prepared on black shallow-well 384-microwell plates (Greiner bio-one small volume, high base, non-binding microplate black, 784900 or Fisherbrand™ 384-Well ShallowWell Polypropylene Microplates, 12-566-617, Fisher Scientific) using 30 nL of 10 mM DMSO compound stocks dispensed with an Echo 550 [compound left out] handler (Labcyte). Each screening plate also contained DMSO controls at equivalent volumes to compounds for positive, negative, and assay buffer blank controls, 16 wells per control type. Stock solutions of CFP-TNKS2 ARC4 and YFP-REAGDGEE or CFP-SAM(E897K) and YFP-SAM(Y920A) were combined and diluted in assay buffer (10 mM BTP pH 7, 3% weight/volume PEG 20000, 0.01% volume/volume Triton, 0.5 mM TCEP) to final concentrations of 100 nM and 200 nM or 150 and 300 nM, respectively. The positive control was prepared by addition of guanidine hydrochloride to the above assay buffer to a final concentration of 1M. A volume of 10 µL of these solutions was added to each well of the assay-ready plates using a BioTek MultiFlo FX dispenser (Agilent) equipped with 5 uL dispensing cassettes for the peristaltic pumps (screening solution and control) and a syringe pump (assay buffer blank). After [compound left out] handling, plates were incubated at RT for 30 minutes before reading fluorescence using a BioTek Synergy Neo2 plate reader (Agilent) with Gen5 software (version 3.02) at four wavelength combinations – 410/477, 410/527, 430/477, 430/527 – each with an excitation bandwidth of 20 nm and an emission bandwidth of 10 nm; a gain setting of 135; a “Normal” read speed with 10 msec delay after plate movement, 50 measurements per data point, low lamp energy, and a “Standard” dynamic range (0 to 99,999); and a read height of 4.5 mm. A SAR investigation was conducted with purchased and synthesized analogues of 1 through FRET-based potency measurements and DSF assay with TNKS2 ARC4 (Table 2, Table S2). All the compounds commercially acquired underwent quality control. […] Changes to the length of the aliphatic chain at R[3] greatly impacts both potency and protein stabilization. […] The diethylamino-based substituent at R[3] […] Compounds 25 and 26 further indicate that the presence of tertiary amine at R[3] is not necessary to achieve binding.
`COc1ccc(C(=O)C2=C(O)C(=O)N(CCCN3CCOCC3)C2c2ccc(C)cc2)cc1OC` (centres unmarked) [compound 30, 30]: the IC50 was > 1000 µM.
As to `N=C(N)NCCCN1C(=O)C(O)=C(C(=O)c2ccc3c(c2)OCCO3)C1c1ccccc1` (centres unmarked) [S3], the concentration for half-maximal inhibition (IC50) is 133 µM.
On the same count and under the same terms, in the case of `O=C(C1=C(O)C(=O)N(CCCN2CCOCC2)C1c1ccccc1)c1ccc2c(c1)OCCO2` (centres unmarked) [compound 42, 42] it was 101 µM; in that of `COCCN1C(=O)C(O)=C(C(=O)c2ccc3c(c2)OCCO3)C1c1cccc(O)c1` (centres unmarked) [compound 35, 35], 305 µM; in that of `O=C(C1=C(O)C(=O)N(Cc2ccccc2)C1c1cccc(O)c1)c1ccc2c(c1)OCCO2` (centres unmarked) [compound 36, 36], 23 µM.
Take `Cc1ccc(C2C(C(=O)c3ccc4c(c3)OCCO4)=C(O)C(=O)N2Cc2ccccc2)cc1` (centres unmarked) [compound 37, 37]: the concentration for half-maximal inhibition (IC50) was found to be 71 µM.
The same measure, in the same setting: in the case of `COc1cccc(C(=O)C2=C(O)C(=O)N(CCCN3CCOCC3)C2c2ccccc2)c1` (centres unmarked) [compound 32, 32] it was > 1000 µM.
For the compound `COc1ccc(C(=O)C2=C(O)C(=O)N(CCCN3CCOCC3)C2c2ccccc2)cc1OC` (centres unmarked) [compound 29, 29], the IC50 was > 1000 µM.
With `O=C(C1=C(O)C(=O)N(CCCN2CCOCC2)C1c1ccc(F)cc1)c1ccc2c(c1)OCCO2` (centres unmarked) [compound 43, 43], the IC50 was 114 µM.
The same measure, in the same setting: as for `COc1cccc(C(=O)C2=C(O)C(=O)N(CCCN3CCOCC3)C2c2ccc(C)cc2)c1` (centres unmarked) [compound 33, 33], the figure is > 1000 µM; as for `O=C(C1=C(O)C(=O)N(Cc2ccncc2)C1c1ccncc1)c1ccc2c(c1)OCCO2` (centres unmarked) [compound 44, 44], > 1000 µM; as for `Cc1cc(C(=O)C2=C(O)C(=O)N(CCCN(C)C)C2c2ccc(O)cc2)ccc1OC(C)C` (centres unmarked) [compound 34, 34], > 1000 µM.
Consider `N=C(N)NCCCN1C(=O)C(O)=C(C(=O)c2ccc3c(c2)OCCO3)C1c1cccc(O)c1` (centres unmarked) [S5], for which the IC50 was found to be 121 µM.
The same measure, in the same setting: in the case of `O=C(C1=C(O)C(=O)N(CCCN2CCNCC2)C1c1cccc(O)c1)c1ccc2c(c1)OCCO2` (centres unmarked) [S2] it was 302 µM.
For `CCN(CC)CCCN1C(=O)C(O)=C(C(=O)c2ccc(OC)cc2)C1c1ccccc1` (centres unmarked) [compound 31, 31], the IC50 was found to be 136 µM.

Staying with this assay, now noted: inhibitor.
On to `Cc1ccccc1COc1ccc(C(=O)C2=C(O)C(=O)N(CCCN(C)C)C2c2cccc(O)c2)cc1` (centres unmarked) [compound 28, 28], for which the concentration for half-maximal inhibition (IC50) is > 1000 µM.
As to `COCCCN1C(=O)C(O)=C(C(=O)c2ccc3c(c2)OCCO3)C1c1ccccc1` (centres unmarked) [compound 40, 40], the IC50 came out at 360 µM.
Still for that read-out and setting: in the case of `Cc1ccc(C2C(C(=O)c3ccc4c(c3)OCCO4)=C(O)C(=O)N2CCN(C)C)cc1` (centres unmarked) [compound 38, 38] it was 493 µM; in that of `CCN(CC)CCN1C(=O)C(O)=C(C(=O)c2ccc3c(c2)OCCO3)C1c1ccccc1` (centres unmarked) [compound 39, 39], 255 µM.
Still for that read-out and setting: in the case of `CN(C)CCCN1C(=O)C(O)=C(C(=O)c2ccc3c(c2)oc(=O)n3C)C1c1ccccc1` (centres unmarked) [compound 27, 27] it was > 1000 µM.
Same read-out and setting: as for `O=C(C1=C(O)C(=O)N(CCc2ccccc2)C1c1ccccc1)c1ccc2c(c1)OCCO2` (centres unmarked) [compound 41, 41], the figure is 65 µM; as for `COc1cc(C2C(C(=O)c3ccc4c(c3)OCCO4)=C(O)C(=O)N2CCCN2CCOCC2)ccc1O` (centres unmarked) [compound 45, 45], 78 µM.

Another assay addresses T1, TNKS2 ARC4.
Assay: not given
Also on record: DSF thermal shift of TNKS2 ARC4, stabilization over DMSO control. As to conditions: binder. An excerpt:
Given the notable stabilization of the pyrrolone-based compounds from the Commercials Diversity collection, we decided to focus on their common scaffold for compound optimization. Pyrrolone is indeed a versatile moiety that is largely employed for the design of compounds with a variety of biological effects.[55] The nine primary hits were acquired from commercial suppliers, they underwent quality control, additional DSF validation and determination of potency through FRET-based IC50 measurements (Table 1). All the tested compounds include a benzodioxane moiety (R[1]), a [compound left out] group with substitutions in the para position (R[2]), and an R[3] group with an aliphatic character and a tertiary amine. […] In addition, all molecules, except for 7, have IC50 values below 100 µM. Among the nine molecules, 1 performed the best in terms of stabilization of TNKS2 ARC4 and potency. […] In the same position, the presence of a hydrophobic methyl group (3, 4), other halogen substituents (5) and alkoxy groups (6–9) is also tolerated, even if not optimal. […] A SAR investigation was conducted with purchased and synthesized analogues of 1 through FRET-based potency measurements and DSF assay with TNKS2 ARC4 (Table 2, Table S2). All the compounds commercially acquired underwent quality control. […] Changes to the length of the aliphatic chain at R[3] greatly impacts both potency and protein stabilization. […] The diethylamino-based substituent at R[3] […] Compounds 25 and 26 further indicate that the presence of tertiary amine at R[3] is not necessary to achieve binding. […] 5 Figure S2. DSF assay results for validation of primary hits identified in the EU-OPENSCREEN Commercials Diversity Library. (A) and (B) show DSF assay validation measurements of TNKS2 ARC4 with primary hits from the Commercial Diversity Library. Compounds are tested at 100 μM. They are named after their EU-OPENSCREEN identity codes and the identities are available for consultation on ECBD. 1,2 (A) and (B) show results from two independent experiments. For each experiment, each compound was tested with a single measurement, while controls (TNKS2 ARC4 with 100 μM optimized peptide, TNKS2 ARC4 with 100 μM DMSO) are studied in at least four replicates and errors are shown. Moreover, stabilization over the control (TNKS2 ARC4 with DMSO) is indicated (ΔTm °C). […] It was not possible to measure the melting curve of TNKS2 ARC4 in presence of EOS21552, EOS54043, EOS54043.
As to `COc1ccc(C(=O)C2=C(O)C(=O)N(CCCN3CCOCC3)C2c2ccc(C)cc2)cc1OC` (centres unmarked) [compound 30, 30], the “ΔTm ± SD (°C)” value was determined as 0.12 ± 0.25 °C.
Still for that read-out and setting: in the case of `N=C(N)NCCCN1C(=O)C(O)=C(C(=O)c2ccc3c(c2)OCCO3)C1c1ccccc1` (centres unmarked) [S3] it was 1.20 ± 0.19 °C; in that of `Cc1ccccc1COc1ccc(C(=O)C2=C(O)C(=O)N(CCCN(C)C)C2c2cccc(O)c2)cc1` (centres unmarked) [compound 28, 28], -0.20 ± 0.22 °C; in that of `O=C(C1=C(O)C(=O)N(CCCN2CCOCC2)C1c1ccccc1)c1ccc2c(c1)OCCO2` (centres unmarked) [compound 42, 42], 2.26 ± 0.34 °C.
As to `COCCN1C(=O)C(O)=C(C(=O)c2ccc3c(c2)OCCO3)C1c1cccc(O)c1` (centres unmarked) [compound 35, 35], the “ΔTm ± SD (°C)” value was 0.82 ± 0.38 °C.
On the same count and under the same terms, in the case of `COCCCN1C(=O)C(O)=C(C(=O)c2ccc3c(c2)OCCO3)C1c1ccccc1` (centres unmarked) [compound 40, 40] it was 0.47 ± 0.31 °C; in that of `Cc1ccc(C2C(C(=O)c3ccc4c(c3)OCCO4)=C(O)C(=O)N2CCN(C)C)cc1` (centres unmarked) [compound 38, 38], 0.67 ± 0.28 °C.
Take `O=C(C1=C(O)C(=O)N(Cc2ccccc2)C1c1cccc(O)c1)c1ccc2c(c1)OCCO2` (centres unmarked) [compound 36, 36]: the “ΔTm ± SD (°C)” value came to 0.45 ± 0.25 °C.
The same measure, in the same setting: in the case of `Cc1ccc(C2C(C(=O)c3ccc4c(c3)OCCO4)=C(O)C(=O)N2Cc2ccccc2)cc1` (centres unmarked) [compound 37, 37] it was 0.51 ± 0.31 °C; in that of `CCN(CC)CCN1C(=O)C(O)=C(C(=O)c2ccc3c(c2)OCCO3)C1c1ccccc1` (centres unmarked) [compound 39, 39], 1.05 ± 0.36 °C; in that of `COc1cccc(C(=O)C2=C(O)C(=O)N(CCCN3CCOCC3)C2c2ccccc2)c1` (centres unmarked) [compound 32, 32], 0.23 ± 0.25 °C.
On the same count and under the same terms, as for `COc1ccc(C(=O)C2=C(O)C(=O)N(CCCN3CCOCC3)C2c2ccccc2)cc1OC` (centres unmarked) [compound 29, 29], the figure is 0.14 ± 0.25 °C; as for `CN(C)CCCN1C(=O)C(O)=C(C(=O)c2ccc3c(c2)oc(=O)n3C)C1c1ccccc1` (centres unmarked) [compound 27, 27], -0.03 ± 0.11 °C; as for `O=C(C1=C(O)C(=O)N(CCCN2CCOCC2)C1c1ccc(F)cc1)c1ccc2c(c1)OCCO2` (centres unmarked) [compound 43, 43], 1.61 ± 0.37 °C.
The same measure, in the same setting: in the case of `COc1cccc(C(=O)C2=C(O)C(=O)N(CCCN3CCOCC3)C2c2ccc(C)cc2)c1` (centres unmarked) [compound 33, 33] it was 0.36 ± 0.33 °C.
For `O=C(C1=C(O)C(=O)N(CCc2ccccc2)C1c1ccccc1)c1ccc2c(c1)OCCO2` (centres unmarked) [compound 41, 41], the “ΔTm ± SD (°C)” value was determined as 0.91 ± 0.31 °C.
Regarding `O=C(C1=C(O)C(=O)N(Cc2ccncc2)C1c1ccncc1)c1ccc2c(c1)OCCO2` (centres unmarked) [compound 44, 44], the “ΔTm ± SD (°C)” value turned out to be 0.21 ± 0.26 °C.
The same measure, in the same setting: in the case of `Cc1cc(C(=O)C2=C(O)C(=O)N(CCCN(C)C)C2c2ccc(O)cc2)ccc1OC(C)C` (centres unmarked) [compound 34, 34] it was -0.08 ± 0.41 °C.
The same measure, in the same setting: in the case of `N=C(N)NCCCN1C(=O)C(O)=C(C(=O)c2ccc3c(c2)OCCO3)C1c1cccc(O)c1` (centres unmarked) [S5] it was 1.31 ± 0.17 °C; in that of `O=C(C1=C(O)C(=O)N(CCCN2CCNCC2)C1c1cccc(O)c1)c1ccc2c(c1)OCCO2` (centres unmarked) [S2], 0.80 ± 0.16 °C; in that of `COc1cc(C2C(C(=O)c3ccc4c(c3)OCCO4)=C(O)C(=O)N2CCCN2CCOCC2)ccc1O` (centres unmarked) [compound 45, 45], 2.32 ± 0.33 °C.
The same measure, in the same setting: as for `CCN(CC)CCCN1C(=O)C(O)=C(C(=O)c2ccc(OC)cc2)C1c1ccccc1` (centres unmarked) [compound 31, 31], the figure is 1.46 ± 0.52 °C.
